Results on one sequence are retold here after paper PMC5247774 (Bioconjugate Chemistry, 2016).

The target of this assay is T1, SERPINB3 (SB3) (Homo sapiens, UniProt P29508).
T1 sequence (P29508 1-390): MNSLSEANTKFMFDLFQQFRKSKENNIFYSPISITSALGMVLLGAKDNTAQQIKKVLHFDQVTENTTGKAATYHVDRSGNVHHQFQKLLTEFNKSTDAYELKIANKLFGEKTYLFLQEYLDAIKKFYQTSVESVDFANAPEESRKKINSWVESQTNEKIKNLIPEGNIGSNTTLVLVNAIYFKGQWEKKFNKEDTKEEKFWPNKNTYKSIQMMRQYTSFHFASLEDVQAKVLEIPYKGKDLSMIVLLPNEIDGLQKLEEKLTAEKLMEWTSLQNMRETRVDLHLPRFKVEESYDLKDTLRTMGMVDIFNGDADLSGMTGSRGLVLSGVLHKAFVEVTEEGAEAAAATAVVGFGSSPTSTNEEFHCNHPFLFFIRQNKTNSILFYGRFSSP
Format: binding. The following applies: SPR, increasing concentrations.

Consider CPNFDWDPNNSNAGFAPDLQHDPFFGLP [CysPreS1], for which the “interaction with SB3 (in words)” value was “did not reveal any interaction”.
